Reference: ChEMBL document CHEMBL1135480, “Design and quantitative structure-activity relationship of 3-amidinobenzyl-1H-indole-2-carboxamides as potent, nonchiral, and selective inhibitors of blood coagulation factor Xa” (J Med Chem, 2002)
Where “and” joins values, the source holds several entries; their conditions need not be identical. Equal entries are not always repeated.

These compounds were tested against Coagulation factor X (Homo sapiens, UniProt P00742) (assay: Inhibition of Coagulation factor Xa).
Sequence of Coagulation factor X (P00742 41-179 limits assumed): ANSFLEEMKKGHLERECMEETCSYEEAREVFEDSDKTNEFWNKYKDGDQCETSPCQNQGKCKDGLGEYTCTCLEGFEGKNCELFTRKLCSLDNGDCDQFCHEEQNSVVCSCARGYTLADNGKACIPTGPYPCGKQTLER
Sequence of Coagulation factor X (P00742 235-488 limits assumed): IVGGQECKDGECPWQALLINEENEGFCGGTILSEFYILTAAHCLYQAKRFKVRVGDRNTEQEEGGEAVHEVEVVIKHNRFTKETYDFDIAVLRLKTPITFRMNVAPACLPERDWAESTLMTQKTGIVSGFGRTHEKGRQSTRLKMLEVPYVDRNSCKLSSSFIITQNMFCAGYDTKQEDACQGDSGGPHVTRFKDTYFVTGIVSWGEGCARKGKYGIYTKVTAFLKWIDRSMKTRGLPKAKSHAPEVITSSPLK
`CN1CCC([C@@H](NC(=O)c2cc3ccccc3n2Cc2cccc(C(=N)N)c2)c2ccc3cc(Cl)ccc3c2)CC1` was tested, and the Ki was 610 nM.
`COc1cccc(CNC(=O)c2cc3c(O)cccc3n2Cc2cccc(C(=N)N)c2)c1` showed a Ki of 308 nM.
For `N=C(N)c1cccc(Cn2c(C(=O)NCCNc3cccc4ccccc34)cc3c(O)cccc32)c1`, the Ki was 318 nM.
For `N=C(N)c1cccc(Cn2c(C(=O)NCCc3ccc(Cl)c(Cl)c3)cc3c(O)cccc32)c1`, the Ki was 918 nM.
In the case of `N=C(N)c1cccc(Cn2c(C(=O)NCCc3ccc(Cl)cc3Cl)cc3c(O)cccc32)c1`, the Ki is reported as 840 nM.
For `COc1cc(CNC(=O)c2cc3c(O)cccc3n2Cc2cccc(C(=N)N)c2)cc(OC)c1`, the Ki was 193 nM.
With `N=C(N)c1cccc(CNC(=O)c2cc3cc(OCc4ccccc4)ccc3n2Cc2cccc(C(=N)N)c2)c1` the Ki was 133 nM.
With `C[C@H](NC(=O)c1cc2cc(OCc3ccccc3)ccc2n1Cc1cccc(C(=N)S)c1)c1ccccc1` the Ki was 4830 nM.
Compound `COC(=O)c1cccc(CNC(=O)c2cc3c(O)cccc3n2Cc2cccc(C(=N)N)c2)c1` has a Ki of 2040 nM.
`C[N+]1(C)CCC(C(NC(=O)c2cc3ccccc3n2Cc2cccc(C(=N)N)c2)c2ccc3cc(Cl)ccc3c2)CC1` (centres undefined) was tested, and the Ki was 1310 nM.
With `Cc1cccc2c1cc(C(=O)OCc1cccc(C(=N)N)c1)n2Cc1cccc(C(=N)N)c1` the Ki was 44 nM.
For `N=C(N)c1cccc(Cn2c(C(=O)NCc3cc(F)cc(F)c3)cc3c(O)cccc32)c1`, the Ki was 191 nM.
With `N=C(N)c1cccc(CNC(=O)c2cc3cc(N)ccc3n2Cc2cccc(C(=N)N)c2)c1` the Ki was 51 nM.
`N=C(N)c1cccc(Cn2c(C(=O)NCc3ccnc4ccccc34)cc3c(O)cccc32)c1` was tested, and the Ki was 300 nM.
For `N=C(N)c1cccc(Cn2c(C(=O)NCC3CCCCC3)cc3c(O)cccc32)c1`, the Ki was 1110 nM.
`N=C(N)c1cccc(Cn2c(C(=O)NCc3cccc(C(N)=O)c3)cc3ccccc32)c1` gave a Ki of 240 nM.
With `N=C(N)c1cccc(Cn2c(C(=O)NCc3cccc4ccccc34)cc3c(O)cccc32)c1` the Ki was 68 nM.
Compound `COc1cccc2c1cc(C(=O)NC(c1ccccc1)c1ccncc1)n2Cc1cccc(C(=N)N)c1` (centres undefined) has a Ki of 6790 nM.
For `CCOC(=O)c1cc2ccccc2n1Cc1cccc(C(=N)N)c1`, the Ki was 4200 nM.
Compound `CN(CCNC(=O)c1cc2c(O)cccc2n1Cc1cccc(C(=N)N)c1)c1cccc2ccccc12` has a Ki of 2470 nM.
With `Cc1cccc2c1cc(C(=O)NCc1cccc(-c3ccccc3)c1)n2Cc1cccc(C(=N)N)c1` the Ki was 325 nM.
In the case of `Cc1cccc2c1cc(C(=O)NCC1CCN(C(=N)N)CC1)n2Cc1cccc(C(=N)N)c1`, the Ki is reported as 25 nM.
`N=C(N)c1cccc(CNC(=O)c2cc3cc(O)ccc3n2Cc2cccc(C(=N)N)c2)c1` was tested, and the Ki was 77 nM.
With `N=C(N)c1cccc(CNC(=O)c2cn(Cc3cccc(C(=N)N)c3)c3ccccc23)c1` the Ki was 1230 nM.
In the case of `C[N+](C)(C)c1ccc(CNC(=O)c2cn(Cc3cccc(C(=N)N)c3)c3ccccc23)cc1`, the Ki is reported as 1820 nM.
In the case of `COC(=O)c1c(C)c2ccccc2n1Cc1cccc(C(=N)N)c1`, the Ki is reported as 8800 nM.
`CN(C)c1ccc(CNC(=O)c2cc3cc(F)ccc3n2Cc2cccc(C(=N)N)c2)cc1` showed a Ki of 3520 nM.
For `C[N+](C)(C)c1ccc(CNC(=O)c2cc3cc(N)ccc3n2Cc2cccc(C(=N)N)c2)cc1`, the Ki was 60 nM.
For `COc1cccc2c1cc(C(=O)NCc1ccc(-c3cc[n+](C)cc3)cc1)n2Cc1cccc(C(=N)N)c1`, the Ki was 110 nM.
`Cc1cccc2c1cc(C(=O)NCc1ccc([N+](C)(C)C)cc1)n2Cc1cccc(C(=N)N)c1` was tested, and the Ki was 16 nM and 14 nM.
For `C[N+](C)(C)c1ccc(CNC(=O)c2cc3c(OCc4ccccc4)cccc3n2Cc2cccc(C(=N)N)c2)cc1`, the Ki was 84 nM.
`C[n+]1ccc(CNC(=O)c2cc3ccccc3n2Cc2cccc(C(=N)N)c2)cc1` showed a Ki of 150 nM.
Compound `CC[N+](C)(C)c1ccc(CNC(=O)c2cc3cc(F)ccc3n2Cc2cccc(C(=N)N)c2)cc1` has a Ki of 103 nM.
Compound `CC(NC(=O)c1cc2ccccc2n1Cc1cccc(C(=N)N)c1)c1cc[n+](C)cc1` (centres undefined) has a Ki of 92 nM.
`C[n+]1cccc(CC(NC(=O)c2cc3ccccc3n2Cc2cccc(C(=N)N)c2)C(N)=O)c1` (centres undefined) gave a Ki of 3900 nM.
For `COc1ccc2cc(C(=O)NCc3ccc([N+](C)(C)C)cc3)n(Cc3cccc(C(=N)N)c3)c2c1`, the Ki was 1760 nM.
`C[N+](C)(C)c1ccc(CNC(=O)c2cc3c(Br)cccc3n2Cc2cccc(C(=N)N)c2)cc1` was tested, and the Ki was 24 nM.
`COc1cccc2c1cc(C(=O)NCc1ccc([N+](C)(C)C)cc1)n2Cc1cccc(C(=N)N)c1` showed a Ki of 62 nM.
For `C[n+]1ccc(CCNC(=O)c2cc3ccccc3n2Cc2cccc(C(=N)N)c2)cc1`, the Ki was 1300 nM.
`COc1ccc2c(c1)cc(C(=O)NCc1ccc([N+](C)(C)C)cc1)n2Cc1cccc(C(=N)N)c1` was tested, and the Ki was 94 nM.
With `Cc1c(C(=O)NCc2cc[n+](C)cc2)n(Cc2cccc(C(=N)N)c2)c2ccccc12` the Ki was 170 nM.
`C[N+](C)(C)c1ccc(CNC(=O)c2cc3cc(F)ccc3n2Cc2cccc(C(=N)N)c2)cc1` was tested, and the Ki was 66 nM and 90 nM.
In the case of `C[n+]1ccc(CNC(=O)c2cc3c(O)cccc3n2Cc2cccc(C(=N)N)c2)c2ccccc21`, the Ki is reported as 50 nM.
`C[N+](C)(C)c1ccc(CNC(=O)c2cc3cc(S(C)(=O)=O)ccc3n2Cc2cccc(C(=N)N)c2)cc1` was tested, and the Ki was 226 nM.
In the case of `Cc1c(F)ccc2c1cc(C(=O)NCc1ccc([N+](C)(C)Cc3ccccc3)cc1)n2Cc1cccc(C(=N)N)c1`, the Ki is reported as 245 nM.
Compound `COC(=O)CN(Cc1cc[n+](C)cc1)C(=O)c1cc2ccccc2n1Cc1cccc(C(=N)N)c1` has a Ki of 170 nM.
For `C=CC[N+](C)(C)c1ccc(CNC(=O)c2cc3cc(F)ccc3n2Cc2cccc(C(=N)N)c2)cc1`, the Ki was 141 nM.
Work on `C#CC[N+](C)(C)c1ccc(CNC(=O)c2cc3cc(F)ccc3n2Cc2cccc(C(=N)N)c2)cc1` yielded a Ki of 76 nM.
Compound `C[N+](C)(C)c1ccc(CNC(=O)c2cc3cc(Br)ccc3n2Cc2cccc(C(=N)N)c2)cc1` has a Ki of 134 nM.
In the case of `COC(=O)c1c(C(=O)NCc2cc[n+](C)cc2)n(Cc2cccc(C(=N)N)c2)c2ccccc12`, the Ki is reported as 350 nM.
In the case of `C[n+]1ccc(CNC(=O)c2cc3ccccc3n2Cc2ccc(C(=N)N)cc2)cc1`, the Ki is reported as 600 nM.
`COc1cccc2c1cc(C(=O)NCCc1cc[n+](C)cc1)n2Cc1cccc(C(=N)N)c1` was tested, and the Ki was 160 nM.
`C[n+]1ccc(CNC(=O)c2cc3cc(F)ccc3n2Cc2cccc(C(=N)N)c2)cc1` gave a Ki of 360 nM.
For `CCN(Cc1cc[n+](C)cc1)C(=O)c1cc2ccccc2n1Cc1cccc(C(=N)N)c1`, the Ki was 500 nM.
Compound `C[N+](C)(C)c1ccc(CNC(=O)c2cc3cc([N+](=O)[O-])ccc3n2Cc2cccc(C(=N)N)c2)cc1` has a Ki of 144 nM.
Work on `Cc1cccc2c1cc(C(N)=O)n2Cc1cccc(C(=N)N)c1` yielded a Ki of 7910 nM.
Compound `Cc1cccc2c1cc(C(=O)NCc1ccc(O)cc1)n2Cc1cccc(C(=N)N)c1` has a Ki of 1610 nM.
In the case of `N=C(N)c1cccc(Cn2c(C(=O)NCc3cccc(F)c3)cc3c(O)cccc32)c1`, the Ki is reported as 720 nM.
With `CSC(=O)c1cc2c(O)cccc2n1Cc1cccc(C(=N)N)c1` the Ki was 2990 nM.
`N=C(N)c1cccc(Cn2c(C(=O)NCc3ccccc3)cc3c(O)cccc32)c1` showed a Ki of 2030 nM.
`N=C(N)c1cccc(Cn2c(C(=O)NCc3ccc4ccc5cccc6ccc3c4c56)cc3c(O)cccc32)c1` gave a Ki of 2060 nM.
`N=C(N)c1cccc(Cn2c(C(=O)NNS(=O)(=O)c3ccccc3)cc3c(O)cccc32)c1` was tested, and the Ki was 7050 nM.
For `N=C(N)c1cccc(Cn2c(C(=O)NC(c3ccccc3)c3ccncc3)cc3ccccc32)c1` (centres undefined), the Ki was 7030 nM.
Compound `N=C(N)c1cccc(Cn2c(C(N)=O)cc3c(O)cccc32)c1` has a Ki of 7160 nM.
`Cc1cc(C)cc(CNC(=O)c2c(Br)c3ccccc3n2Cc2cccc(C(=N)N)c2)c1` gave a Ki of 13 nM.
`N=C(N)c1cccc(Cn2c(C(=O)NCc3ccccn3)cc3c(O)cccc32)c1` was tested, and the Ki was 3330 nM.
For `CN(C)c1ccc(CNC(=O)c2cn(Cc3cccc(C(=N)N)c3)c3ccccc23)cc1`, the Ki was 2190 nM.
`Cc1cccc2c1cc(C(=O)NCc1ccc(N(C)C)cc1)n2Cc1cccc(C(=N)N)c1` was tested, and the Ki was 1310 nM.
`N=C(N)c1cccc(Cn2c(C(=O)NCCc3ccc(Br)cc3)cc3c(O)cccc32)c1` showed a Ki of 1630 nM.
`N=C(N)c1cccc(Cn2c(C(=O)NCc3cccc(C(F)(F)F)c3)cc3c(O)cccc32)c1` gave a Ki of 476 nM.
In the case of `N=C(N)c1cccc(Cn2c(C(=O)NCc3cccc(Br)c3)cc3c(O)cccc32)c1`, the Ki is reported as 117 nM.
With `N=C(N)c1cccc(Cn2c(C(=O)NCc3ccccc3Cl)cc3c(O)cccc32)c1` the Ki was 1200 nM.
In the case of `N=C(N)c1cccc(COC(=O)c2cc3cc(OCc4ccccc4)ccc3n2Cc2cccc(C(=N)N)c2)c1`, the Ki is reported as 61 nM.
In the case of `Cc1cccc2c1cc(C(=O)NCc1cc[n+]([O-])cc1)n2Cc1cccc(C(=N)N)c1`, the Ki is reported as 14500 nM.
In the case of `N=C(N)c1cccc(Cn2c(C(=O)NCc3ccc4ccccc4c3)cc3c(O)cccc32)c1`, the Ki is reported as 1720 nM.
`N=C(N)c1cccc(CNC(=O)c2cc3ccccc3n2Cc2cccc(C(=N)N)c2)c1` was tested, and the Ki was 26 nM and 19 nM.
In the case of `N=C(N)c1cccc(Cn2c(C(=O)NCc3cccc(C(=O)O)c3)cc3c(O)cccc32)c1`, the Ki is reported as 10000 nM.
Compound `N=C(N)c1cccc(Cn2c(C(=O)NCc3cccc4ccccc34)c(Cl)c3ccccc32)c1` has a Ki of 304 nM.
`Cc1cccc2c1cc(C(=O)NCc1cccc3ccccc13)n2Cc1cccc(C(=N)N)c1` showed a Ki of 96 nM.
In the case of `N=C(N)c1cccc(Cn2c(C(=O)NCC(=O)Nc3ccc4ccccc4c3)cc3c(O)cccc32)c1`, the Ki is reported as 2380 nM.
`COc1ccc2c(cc(C(=O)NCc3ccncc3)n2Cc2cccc(C(=N)N)c2)c1OC` showed a Ki of 5310 nM.
`Cc1cccc2c1cc(C(=O)NCc1ccnc3ccccc13)n2Cc1cccc(C(=N)N)c1` showed a Ki of 173 nM.
`N=C(N)c1cccc(Cn2c(C(=O)NCc3cccc(I)c3)cc3c(O)cccc32)c1` gave a Ki of 42 nM.
Compound `N=C(N)c1ccc(CNC(=O)c2cn(Cc3cccc(C(=N)N)c3)c3ccccc23)cc1` has a Ki of 1120 nM.
`N=C(N)c1cccc(Cn2c(C(=O)NCc3ccc(Cl)c(Cl)c3)cc3c(O)cccc32)c1` showed a Ki of 841 nM.
`COC(=O)c1c(C(=O)OC)n(Cc2cccc(C(=N)N)c2)c2ccccc12` gave a Ki of 7500 nM.
In the case of `N=C(N)c1cccc(Cn2c(C(=O)NCc3ccc(Cl)cc3)cc3ccccc32)c1`, the Ki is reported as 3600 nM.
`COc1cccc2c1cc(C(=O)NCCc1ccc(O)cc1)n2Cc1cccc(C(=N)N)c1` was tested, and the Ki was 970 nM.
`N=C(N)c1cccc(Cn2c(C(=O)NCc3cccc(NC(N)=O)c3)cc3c(O)cccc32)c1` gave a Ki of 180 nM.
For `N=C(N)c1cccc(Cn2c(C(=O)NCCc3ccc(Cl)cc3)cc3c(O)cccc32)c1`, the Ki was 1560 nM.
`N=C(N)c1cccc(Cn2c(C(=O)NCc3cc(Cl)cc(Cl)c3)c(Br)c3ccccc32)c1` was tested, and the Ki was 85 nM.
Compound `COc1ccc(CNC(=O)c2cc3c(O)cccc3n2Cc2cccc(C(=N)N)c2)cc1` has a Ki of 1360 nM.
Compound `CCOC(=O)c1cc2c(C)cccc2n1Cc1cccc(C(=N)N)c1` has a Ki of 948 nM.
`N=C(N)c1cccc(Cn2c(C(N)=O)cc3ccccc32)c1` was tested, and the Ki was 5650 nM.
